Source: patent US20260262643A1, “HERBICIDAL BENZOXAZINES” (FMC CORPORATION, priority 2022, published 2026)

Tests used:
soybean [1] = test: Test A postemergence; assay type: in vivo, Glycine max
Procedure, shortened: (§1)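 Loam/sand soil; pre-em directed soil spray at planting, post-em spray at 1–2 leaf (2–10 cm). Compound in non-phytotoxic solvent + surfactant. Greenhouse 10 d; visual injury vs untreated, 0 = no effect, 100 = complete control.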

foxtail, giant [2] = test: Test A preemergence; assay type: in vivo, Setaria faberi
Procedure, shortened: as §1

horseweed = test: Test A postemergence; assay type: in vivo, Erigeron canadensis
Procedure, shortened: as §1

rice = test: Test B flooded paddy test; assay type: in vivo, Oryza sativa; conditions: 250 g ai/ha, Flood, 13 days, 0 to 100 scale (0 no effect, 100 complete control)
Procedure, shortened: (§2)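 Flooded to 3 cm at treatment time, 2-leaf plants got the test compound applied straight into the paddy water. They then stayed under constant flood in a greenhouse for 13 days. Ratings used a 0 to 100 visual scale.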

pigweed, palmer [3] = test: Test A postemergence; assay type: in vivo, Amaranthus palmeri
Procedure, shortened: as §1

ryegrass, Italian [4] = test: Test A preemergence; assay type: in vivo, Lolium multiflorum
Procedure, shortened: as §1

goosegrass [5] = test: Test A postemergence; assay type: in vivo, Eleusine indica
Procedure, shortened: as §1

corn [6] = test: Test A preemergence; assay type: in vivo, Zea mays
Procedure, shortened: as §1

kochia [7] = test: Test A postemergence; assay type: in vivo, Bassia scoparia
Procedure, shortened: as §1

ducksalad = test: Test B flooded paddy test; assay type: in vivo, Heteranthera limosa; conditions: 250 g ai/ha, Flood, 13 days, 0 to 100 scale (0 no effect, 100 complete control)
Procedure, shortened: as §2

corn [8] = test: Test A postemergence; assay type: in vivo, Zea mays
Procedure, shortened: as §1

ragweed [9] = test: Test A preemergence; assay type: in vivo, Ambrosia artemisiifolia
Procedure, shortened: as §1

galium = test: Test A postemergence; assay type: in vivo, Galium aparine
Procedure, shortened: as §1

pigweed, palmer [10] = test: Test A preemergence; assay type: in vivo, Amaranthus palmeri
Procedure, shortened: as §1

kochia [11] = test: Test A preemergence; assay type: in vivo, Bassia scoparia
Procedure, shortened: as §1

oat, wild [12] = test: Test A postemergence; assay type: in vivo, Avena fatua
Procedure, shortened: as §1

barnyardgrass = test: Test B flooded paddy test; assay type: in vivo, Echinochloa crus-galli; conditions: 250 g ai/ha, Flood, 13 days, 0 to 100 scale (0 no effect, 100 complete control)
Procedure, shortened: as §2

foxtail, giant [13] = test: Test A postemergence; assay type: in vivo, Setaria faberi
Procedure, shortened: as §1

blackgrass [14] = test: Test A postemergence; assay type: in vivo, Alopecurus myosuroides
Procedure, shortened: as §1

oat, wild [15] = test: Test A preemergence; assay type: in vivo, Avena fatua
Procedure, shortened: as §1

ryegrass, Italian [16] = test: Test A postemergence; assay type: in vivo, Lolium multiflorum
Procedure, shortened: as §1

wheat [17] = test: Test A postemergence; assay type: in vivo, Triticum aestivum
Procedure, shortened: as §1

goosegrass [18] = test: Test A preemergence; assay type: in vivo, Eleusine indica
Procedure, shortened: as §1

sedge, umbrella = test: Test B flooded paddy test; assay type: in vivo, Cyperus difformis; conditions: 250 g ai/ha, Flood, 13 days, 0 to 100 scale (0 no effect, 100 complete control)
Procedure, shortened: as §2

soybean [19] = test: Test A preemergence; assay type: in vivo, Glycine max
Procedure, shortened: as §1

ragweed [20] = test: Test A postemergence; assay type: in vivo, Ambrosia artemisiifolia
Procedure, shortened: as §1

wheat [21] = test: Test A preemergence; assay type: in vivo, Triticum aestivum
Procedure, shortened: as §1

blackgrass [22] = test: Test A preemergence; assay type: in vivo, Alopecurus myosuroides
Procedure, shortened: as §1

[23] = 125 g ai/ha, postemergence, 10 days, visual injury, 0 to 100 scale (0 no effect, 100 complete control)
[24] = 500 g ai/ha, Postemergence, 0 to 100 scale
[25] = 125 g ai/ha, visual injury after 10 days, 0 to 100 scale, 0 is no effect, 100 is complete control
[26] = 500 g ai/ha, 0 to 100 scale (0 no effect, 100 complete control), 10 days

Cc1ncn(-c2cccc(C(=O)N3C[C@H](C)Oc4c(C)cccc43)c2)n1 [Compound 51]
Plant response rating, Soybean (soybean [1]; [23]): 100
Plant response rating, Soybean (soybean [1]; [24]): 100
Plant response rating, Foxtail, Giant (foxtail, giant [2]; [25]): 100
Plant response rating, Foxtail, Giant (foxtail, giant [2]; [26]): 100
Plant response rating, Horseweed (horseweed; [23]): 0
Plant response rating, Horseweed (horseweed; [24]): 20
Plant response rating, Rice (rice): 15
Plant response rating, Pigweed, Palmer (pigweed, palmer [3]; [23]): 20
Plant response rating, Pigweed, Palmer (pigweed, palmer [3]; [24]): 50
Plant response rating, Ryegrass, Italian (ryegrass, Italian [4]; [25]): 90
Plant response rating, Ryegrass, Italian (ryegrass, Italian [4]; [26]): 100
Plant response rating, Goosegrass (goosegrass [5]; [23]): 40
Plant response rating, Goosegrass (goosegrass [5]; [24]): 80
Plant response rating, Corn (corn [6]; [25]): 20
Plant response rating, Corn (corn [6]; [26]): 50
Plant response rating, Kochia (kochia [7]; [23]): 60
Plant response rating, Kochia (kochia [7]; [24]): 70
Plant response rating, Ducksalad (ducksalad): 65
Plant response rating, Corn (corn [8]; [23]): 30
Plant response rating, Corn (corn [8]; [24]): 50
Plant response rating, Ragweed (ragweed [9]; [25]): 0
Plant response rating, Ragweed (ragweed [9]; [26]): 0
Plant response rating, Galium (galium; [23]): 80
Plant response rating, Galium (galium; [24]): 100
Plant response rating, Pigweed, Palmer (pigweed, palmer [10]; [25]): 0
Plant response rating, Pigweed, Palmer (pigweed, palmer [10]; [26]): 60
Plant response rating, Kochia (kochia [11]; [25]): 70
Plant response rating, Kochia (kochia [11]; [26]): 90
Plant response rating, Oat, Wild (oat, wild [12]; [23]): 30
Plant response rating, Oat, Wild (oat, wild [12]; [24]): 70
Plant response rating, Barnyardgrass (barnyardgrass): 25
Plant response rating, Foxtail, Giant (foxtail, giant [13]; [23]): 90
Plant response rating, Foxtail, Giant (foxtail, giant [13]; [24]): 90
Plant response rating, Blackgrass (blackgrass [14]; [23]): 40
Plant response rating, Blackgrass (blackgrass [14]; [24]): 50
Plant response rating, Oat, Wild (oat, wild [15]; [25]): 30
Plant response rating, Oat, Wild (oat, wild [15]; [26]): 90
Plant response rating, Ryegrass, Italian (ryegrass, Italian [16]; [23]): 70
Plant response rating, Ryegrass, Italian (ryegrass, Italian [16]; [24]): 90
Plant response rating, Wheat (wheat [17]; [23]): 30
Plant response rating, Wheat (wheat [17]; [24]): 80
Plant response rating, Goosegrass (goosegrass [18]; [25]): 90
Plant response rating, Goosegrass (goosegrass [18]; [26]): 100
Plant response rating, Sedge, Umbrella (sedge, umbrella): 80
Plant response rating, Soybean (soybean [19]; [25]): 90
Plant response rating, Soybean (soybean [19]; [26]): 100
Plant response rating, Ragweed (ragweed [20]; [23]): 0
Plant response rating, Ragweed (ragweed [20]; [24]): 0
Plant response rating, Wheat (wheat [21]; [25]): 20
Plant response rating, Wheat (wheat [21]; [26]): 60
Plant response rating, Blackgrass (blackgrass [22]; [25]): 30
Plant response rating, Blackgrass (blackgrass [22]; [26]): 60

Cc1cccc2c1O[C@@H](C)CN2C(=O)c1ccc(F)c(-n2cncn2)c1 [Compound 52]
Plant response rating, Soybean (soybean [1]; [23]): 100
Plant response rating, Soybean (soybean [1]; [24]): 100
Plant response rating, Foxtail, Giant (foxtail, giant [2]; [25]): 90
Plant response rating, Foxtail, Giant (foxtail, giant [2]; [26]): 100
Plant response rating, Horseweed (horseweed; [23]): 0
Plant response rating, Horseweed (horseweed; [24]): 0
Plant response rating, Rice (rice): 10
Plant response rating, Pigweed, Palmer (pigweed, palmer [3]; [23]): 30
Plant response rating, Pigweed, Palmer (pigweed, palmer [3]; [24]): 60
Plant response rating, Ryegrass, Italian (ryegrass, Italian [4]; [25]): 80
Plant response rating, Ryegrass, Italian (ryegrass, Italian [4]; [26]): 100
Plant response rating, Goosegrass (goosegrass [5]; [23]): 50
Plant response rating, Goosegrass (goosegrass [5]; [24]): 60
Plant response rating, Corn (corn [6]; [25]): 20
Plant response rating, Corn (corn [6]; [26]): 40
Plant response rating, Kochia (kochia [7]; [23]): 10
Plant response rating, Kochia (kochia [7]; [24]): 60
Plant response rating, Ducksalad (ducksalad): 50
Plant response rating, Corn (corn [8]; [23]): 40
Plant response rating, Corn (corn [8]; [24]): 70
Plant response rating, Ragweed (ragweed [9]; [25]): 0
Plant response rating, Ragweed (ragweed [9]; [26]): 70
Plant response rating, Galium (galium; [23]): 30
Plant response rating, Galium (galium; [24]): 90
Plant response rating, Pigweed, Palmer (pigweed, palmer [10]; [25]): 0
Plant response rating, Pigweed, Palmer (pigweed, palmer [10]; [26]): 100
Plant response rating, Kochia (kochia [11]; [25]): 0
Plant response rating, Kochia (kochia [11]; [26]): 70
Plant response rating, Oat, Wild (oat, wild [12]; [23]): 20
Plant response rating, Oat, Wild (oat, wild [12]; [24]): 80
Plant response rating, Barnyardgrass (barnyardgrass): 25
Plant response rating, Foxtail, Giant (foxtail, giant [13]; [23]): 60
Plant response rating, Foxtail, Giant (foxtail, giant [13]; [24]): 90
Plant response rating, Blackgrass (blackgrass [14]; [23]): 50
Plant response rating, Blackgrass (blackgrass [14]; [24]): 60
Plant response rating, Oat, Wild (oat, wild [15]; [25]): 40
Plant response rating, Oat, Wild (oat, wild [15]; [26]): 80
Plant response rating, Ryegrass, Italian (ryegrass, Italian [16]; [23]): 40
Plant response rating, Ryegrass, Italian (ryegrass, Italian [16]; [24]): 80
Plant response rating, Wheat (wheat [17]; [23]): 30
Plant response rating, Wheat (wheat [17]; [24]): 60
Plant response rating, Goosegrass (goosegrass [18]; [25]): 90
Plant response rating, Goosegrass (goosegrass [18]; [26]): 100
Plant response rating, Sedge, Umbrella (sedge, umbrella): 75
Plant response rating, Soybean (soybean [19]; [25]): 30
Plant response rating, Soybean (soybean [19]; [26]): 90
Plant response rating, Ragweed (ragweed [20]; [23]): 0
Plant response rating, Ragweed (ragweed [20]; [24]): 30
Plant response rating, Wheat (wheat [21]; [25]): 30
Plant response rating, Wheat (wheat [21]; [26]): 60
Plant response rating, Blackgrass (blackgrass [22]; [25]): 50
Plant response rating, Blackgrass (blackgrass [22]; [26]): 60
